Data as given in patent publication US9751851B2, “Molecules and compositions that inhibit gram negative bacteria and their uses” (THE TRUSTEES OF PRINCETON UNIVERSITY, priority 2013, dated 2017).

Tests used:
[1] = system: wild-type P. aeruginosa PA14; assay: microbe, parasite or virus in culture; type: cell-based
Summary of the method: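 PA14 cultures diluted 1:1000, grown aerobically 17 h at 37° C with shaking with compound at 100 μM (end point) or 200 nM–200 μM (titration). Pyocyanin in filtered cell-free fluid read at 695 nm; efficacy 0% at WT level, 100% at medium background; IC50 from variable-slope sigmoidal fit.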

P. aeruginosa PA14 [2] = assay: Microfluidic flow cell clogging (time until clogging); type: cell-based; conditions: wild-type P. aeruginosa PA14, 100 μM mBTL
Method: Microfluidic Flow Cells. Methods. Overnight P. aeruginosa PA14 cultures were back-diluted 1:1000 into 800 mL of tryptone broth (1% tryptone in H2O) with or without 100 μM mBTL and grown to mid-logarithmic phase (OD600=0.5). These cultures were used to fill 100 mL reservoirs that fed into microfluidic flow channels via Tygon tubing with an inner diameter of 2.4 mm. Similar tubing connected the outlet of the microfluidic channel to a collection dish on an analytical balance controlled via LabVIEW. The elevation of the culture reservoir above the collection dish on the balance set the constant pressure difference that drove the flow through the microfluidic channel. The microfluidic channel is 200 μm wide, 90 μm high, and contains a sequence of 37 bends that mimic corners in porous materials. The weight of the effluent culture was measured as a function of time t with measurement intervals of 4 s, and the data were converted into a flow rate Q(t) via the equation
[formula] where Δt=30 s and the density is assumed to be that of water, 1 kg/L. To the resulting flow rate time series Q(t), the function
[formula] was fitted which yields the measurement of the time until clogging (corresponding to the time at which the flow rate declined to 50% of its baseline value Q0).

P. aeruginosa PA14 [3] = assay: C. elegans fast killing infection assay; type: in vivo
Method: Methods. C. elegans fast killing assays were conducted with 90 wild-type N2 worms for each condition (30 worms/replicate, 3 replicates performed). C. elegans were propagated on NGM plates prior to eggs being harvested from gravid adults using a standard bleaching protocol (30 mL 5% bleach, 15 mL 5 M KOH, 55 mL dH2O). Harvested eggs were placed on lawns of fresh E. coli HB101 and allowed to grow for 48 hr (to reach the L4 stage) at 20° C. prior to being moved to lawns of P. aeruginosa and placed at 25° C. on sorbitol, glucose, cholesterol plates. Nematodes were scored for survival every hr for 5 hr and again at 24 hr. The % living worms was calculated in triplicate for each time point. 50 μM mBTL or an equivalent volume of DMSO was added to plates and to the bacterial cultures during growth.

P. aeruginosa PA14 [4] = assay: Growth of P. aeruginosa monitored by absorbance at 600 nm; type: cell-based
[5] = system: A549 human lung cells infected with P. aeruginosa PA14; assay: A549 human lung cell infection (propidium iodide uptake); type: cell-based; conditions: wild-type and lasR mutant strains; 100 μM compound
Method: Methods. Human A549 cells were grown in CellStar tissue culture flasks. Prior to infection, the A549 cells were treated with trypsin-EDTA (CellGro), split, counted, and aliquotted into 96 well plates at 20,000 mammalian cells/well (cell counts were estimated using Trypan Blue (CellGro) exclusion). Cells were grown for 20 hr at 37° C. in DMEM (Invitrogen). Cells were washed 3× with warm PBS (Gibco). 100 μL of “master mix” was added to each well for each condition. Master mix contained 1 mL pre-warmed-PBS, 5 μL of 2 mg/mL propidium iodide (Bioprobes), 1 μL of a 100 mM inhibitor stock or DMSO, and 10 μL of OD600=2 P. aeruginosa PA14 grown in the presence of mBTL or DMSO. Infections were monitored using an EnVision plate reader every 2 hr with the RFP filter supplied by GE.

meta-bromothiolactone [mBTL]
IC50 ([1]; WT P. aeruginosa PA14, 17 hr growth, titration, read-out: IC50 for inhibition of pyocyanin production): 8 µM | inhibition of pyocyanin production (in words) ([1]; wild-type P. aeruginosa PA14, end point assays at 100 μM): potent inhibition of pyocyanin | clogging of microfluidic chambers (P. aeruginosa PA14 [2]): phenotype indistinguishable from the mutants | C. elegans death (P. aeruginosa PA14 [3]; lasR mutant P. aeruginosa PA14 treated with 50 μM mBTL): 50% | C. elegans death (P. aeruginosa PA14 [3]; wild-type P. aeruginosa PA14 treated with 50 μM mBTL): 23% | effect on P. aeruginosa PA14 growth (P. aeruginosa PA14 [4]): not affecting P. aeruginosa PA14 growth | killing of A549 cells by P. aeruginosa [5]: reduces killing
